Laboratory results published in the NIST ThermoML archive (doi:10.1016/j.jct.2010.08.021).
“And” between values parts separate entries of the source, which are not always exact repeats. Equal values may be shown once.

Test: mn = molality of the nth substance listed, in mol/kg
Details: 101 kPa, Liquid; for speed of sound: Sing-around technique in a fixed-path interferometer; for mass density: Vibrating tube method

N.N.O=C(O)CC(O)(CC(=O)O)C(=O)O [ammonium citrate, dibasic] + O
Details	mass density	speed of sound
288.15 K, m1 = 0.0059	999.706 kg/m3	1467.4 m/s
288.15 K, m1 = 0.0071	999.822 kg/m3	1467.6 m/s
288.15 K, m1 = 0.0087	999.992 kg/m3	1467.9 m/s
288.15 K, m1 = 0.0129	1000.42 kg/m3	1468.5 m/s
288.15 K, m1 = 0.0177	1000.9 kg/m3	1469.1 m/s
288.15 K, m1 = 0.0222	1001.37 kg/m3	1469.7 m/s
288.15 K, m1 = 0.0266	1001.8 kg/m3	1470.2 m/s
288.15 K, m1 = 0.0311	1002.26 kg/m3	1470.9 m/s
288.15 K, m1 = 0.0354	1002.69 kg/m3	1471.5 m/s
288.15 K, m1 = 0.0423	1003.38 kg/m3	1472.4 m/s
288.15 K, m1 = 0.0446	1003.62 kg/m3	1472.8 m/s
288.15 K, m1 = 0.0468	1003.84 kg/m3	1473.1 m/s
288.15 K, m1 = 0.0492	1004.09 kg/m3	1473.4 m/s
288.15 K, m1 = 0.0562	1004.75 kg/m3	1474.3 m/s
288.15 K, m1 = 0.0645	1005.59 kg/m3	1475.4 m/s
288.15 K, m1 = 0.0748	1006.57 kg/m3	1476.8 m/s
288.15 K, m1 = 0.0797	1007.07 kg/m3	1477.4 m/s
288.15 K, m1 = 0.09	1008.08 kg/m3	1478.8 m/s
288.15 K, m1 = 0.5	1044.77 kg/m3 and 1044.77 kg/m3 and 1044.73 kg/m3	1529.2 m/s and 1529 m/s and 1529 m/s
288.15 K, m1 = 0.988	1082.62 kg/m3	1585.1 m/s
288.15 K, m1 = 0.997	1082.58 kg/m3	1584.9 m/s
288.15 K, m1 = 0.998	1082.63 kg/m3	1585 m/s
293.15 K, m1 = 0.0059	998.799 kg/m3	1483.5 m/s
293.15 K, m1 = 0.0071	998.916 kg/m3	1483.7 m/s
293.15 K, m1 = 0.0087	999.084 kg/m3	1483.9 m/s
293.15 K, m1 = 0.0129	999.5 kg/m3	1484.5 m/s
293.15 K, m1 = 0.0177	999.976 kg/m3	1485.1 m/s
293.15 K, m1 = 0.0222	1000.44 kg/m3	1485.7 m/s
293.15 K, m1 = 0.0266	1000.87 kg/m3	1486.2 m/s
293.15 K, m1 = 0.0311	1001.32 kg/m3	1486.8 m/s
293.15 K, m1 = 0.0354	1001.75 kg/m3	1487.4 m/s
293.15 K, m1 = 0.0423	1002.43 kg/m3	1488.3 m/s
293.15 K, m1 = 0.0446	1002.67 kg/m3	1488.7 m/s
293.15 K, m1 = 0.0468	1002.88 kg/m3	1488.9 m/s
293.15 K, m1 = 0.0492	1003.13 kg/m3	1489.3 m/s
293.15 K, m1 = 0.0562	1003.78 kg/m3	1490.1 m/s
293.15 K, m1 = 0.0645	1004.61 kg/m3	1491.2 m/s
293.15 K, m1 = 0.0748	1005.58 kg/m3	1492.5 m/s
293.15 K, m1 = 0.0797	1006.07 kg/m3	1493.1 m/s
293.15 K, m1 = 0.09	1007.07 kg/m3	1494.4 m/s
293.15 K, m1 = 0.5	1043.38 kg/m3 and 1043.38 kg/m3 and 1043.34 kg/m3	1542.8 m/s and 1542.6 m/s and 1542.7 m/s
293.15 K, m1 = 0.988	1080.92 kg/m3	1596.5 m/s
293.15 K, m1 = 0.997	1080.88 kg/m3	1596.4 m/s
293.15 K, m1 = 0.998	1080.93 kg/m3	1596.5 m/s
298.15 K, m1 = 0.0059	997.633 kg/m3	1497.7 m/s
298.15 K, m1 = 0.0071	997.747 kg/m3	1497.9 m/s
298.15 K, m1 = 0.0087	997.913 kg/m3	1498.1 m/s
298.15 K, m1 = 0.0129	998.325 kg/m3	1498.7 m/s
298.15 K, m1 = 0.0177	998.796 kg/m3	1499.3 m/s
298.15 K, m1 = 0.0222	999.256 kg/m3	1499.9 m/s
298.15 K, m1 = 0.0266	999.681 kg/m3	1500.3 m/s
298.15 K, m1 = 0.0311	1000.12 kg/m3	1501 m/s
298.15 K, m1 = 0.0354	1000.55 kg/m3	1501.5 m/s
298.15 K, m1 = 0.0423	1001.23 kg/m3	1502.4 m/s
298.15 K, m1 = 0.0446	1001.46 kg/m3	1502.7 m/s
298.15 K, m1 = 0.0468	1001.67 kg/m3	1503 m/s
298.15 K, m1 = 0.0492	1001.92 kg/m3	1503.3 m/s
298.15 K, m1 = 0.0562	1002.56 kg/m3	1504.1 m/s
298.15 K, m1 = 0.0645	1003.38 kg/m3	1505.2 m/s
298.15 K, m1 = 0.0748	1004.34 kg/m3	1506.4 m/s
298.15 K, m1 = 0.0797	1004.83 kg/m3	1507 m/s
298.15 K, m1 = 0.09	1005.81 kg/m3	1508.2 m/s
298.15 K, m1 = 0.5	1041.8 kg/m3 and 1041.8 kg/m3 and 1041.76 kg/m3	1554.8 m/s and 1554.6 m/s and 1554.6 m/s
298.15 K, m1 = 0.988	1079.09 kg/m3	1606.5 m/s
298.15 K, m1 = 0.997	1079.04 kg/m3	1606.4 m/s
298.15 K, m1 = 0.998	1079.09 kg/m3	1606.5 m/s
303.15 K, m1 = 0.0059	996.228 kg/m3	1510.1 m/s
303.15 K, m1 = 0.0071	996.341 kg/m3	1510.3 m/s
303.15 K, m1 = 0.0087	996.506 kg/m3	1510.5 m/s
303.15 K, m1 = 0.0129	996.916 kg/m3	1511 m/s
303.15 K, m1 = 0.0177	997.381 kg/m3	1511.6 m/s
303.15 K, m1 = 0.0222	997.837 kg/m3	1512.2 m/s
303.15 K, m1 = 0.0266	998.259 kg/m3	1512.6 m/s
303.15 K, m1 = 0.0311	998.698 kg/m3	1513.2 m/s
303.15 K, m1 = 0.0354	999.119 kg/m3	1513.8 m/s
303.15 K, m1 = 0.0423	999.789 kg/m3	1514.6 m/s
303.15 K, m1 = 0.0446	1000.02 kg/m3	1514.9 m/s
303.15 K, m1 = 0.0468	1000.23 kg/m3	1515.1 m/s
303.15 K, m1 = 0.0492	1000.48 kg/m3	1515.4 m/s
303.15 K, m1 = 0.0562	1001.11 kg/m3	1516.2 m/s
303.15 K, m1 = 0.0645	1001.92 kg/m3	1517.2 m/s
303.15 K, m1 = 0.0748	1002.88 kg/m3	1518.4 m/s
303.15 K, m1 = 0.0797	1003.36 kg/m3	1519 m/s
303.15 K, m1 = 0.09	1004.34 kg/m3	1520.2 m/s
303.15 K, m1 = 0.5	1040.04 kg/m3 and 1040.04 kg/m3 and 1040 kg/m3	1565.1 m/s and 1564.9 m/s and 1564.9 m/s
303.15 K, m1 = 0.988	1077.11 kg/m3	1615 m/s
303.15 K, m1 = 0.997	1077.07 kg/m3	1614.9 m/s
303.15 K, m1 = 0.998	1077.11 kg/m3	1615 m/s
308.15 K, m1 = 0.0059	994.605 kg/m3	1520.8 m/s
308.15 K, m1 = 0.0071	994.721 kg/m3	1520.9 m/s
308.15 K, m1 = 0.0087	994.88 kg/m3	1521.1 m/s
308.15 K, m1 = 0.0129	995.288 kg/m3	1521.6 m/s
308.15 K, m1 = 0.0177	995.753 kg/m3	1522.2 m/s
308.15 K, m1 = 0.0222	996.203 kg/m3	1522.8 m/s
308.15 K, m1 = 0.0266	996.623 kg/m3	1523.2 m/s
308.15 K, m1 = 0.0311	997.058 kg/m3	1523.8 m/s
308.15 K, m1 = 0.0354	997.475 kg/m3	1524.3 m/s
308.15 K, m1 = 0.0423	998.143 kg/m3	1525.1 m/s
308.15 K, m1 = 0.0446	998.37 kg/m3	1525.4 m/s
308.15 K, m1 = 0.0468	998.58 kg/m3	1525.6 m/s
308.15 K, m1 = 0.0492	998.825 kg/m3	1525.9 m/s
308.15 K, m1 = 0.0562	999.453 kg/m3	1526.7 m/s
308.15 K, m1 = 0.0645	1000.26 kg/m3	1527.7 m/s
308.15 K, m1 = 0.0748	1001.21 kg/m3	1528.8 m/s
308.15 K, m1 = 0.0797	1001.68 kg/m3	1529.4 m/s
308.15 K, m1 = 0.09	1002.65 kg/m3	1530.5 m/s
308.15 K, m1 = 0.5	1038.13 kg/m3 and 1038.12 kg/m3 and 1038.08 kg/m3	1573.9 m/s and 1573.7 m/s and 1573.7 m/s
308.15 K, m1 = 0.988	1075.01 kg/m3	1622.1 m/s
308.15 K, m1 = 0.997	1074.96 kg/m3	1622 m/s
308.15 K, m1 = 0.998	1075.01 kg/m3	1622.1 m/s
313.15 K, m1 = 0.0059	992.787 kg/m3	1529.8 m/s
313.15 K, m1 = 0.0071	992.9 kg/m3	1530 m/s
313.15 K, m1 = 0.0087	993.06 kg/m3	1530.2 m/s
313.15 K, m1 = 0.0129	993.463 kg/m3	1530.7 m/s
313.15 K, m1 = 0.0177	993.924 kg/m3	1531.3 m/s
313.15 K, m1 = 0.0222	994.373 kg/m3	1531.8 m/s
313.15 K, m1 = 0.0266	994.79 kg/m3	1532.2 m/s
313.15 K, m1 = 0.0311	995.224 kg/m3	1532.8 m/s
313.15 K, m1 = 0.0354	995.638 kg/m3	1533.3 m/s
313.15 K, m1 = 0.0423	996.299 kg/m3	1534.1 m/s
313.15 K, m1 = 0.0446	996.527 kg/m3	1534.3 m/s
313.15 K, m1 = 0.0468	996.735 kg/m3	1534.6 m/s
313.15 K, m1 = 0.0492	996.978 kg/m3	1534.8 m/s
313.15 K, m1 = 0.0562	997.604 kg/m3	1535.6 m/s
313.15 K, m1 = 0.0645	998.406 kg/m3	1536.6 m/s
313.15 K, m1 = 0.0748	999.345 kg/m3	1537.7 m/s
313.15 K, m1 = 0.0797	999.818 kg/m3	1538.2 m/s
313.15 K, m1 = 0.09	1000.78 kg/m3	1539.3 m/s
313.15 K, m1 = 0.5	1036.06 kg/m3 and 1036.02 kg/m3	1581.2 m/s and 1581 m/s and 1581 m/s
313.15 K, m1 = 0.988	1072.78 kg/m3	1628 m/s
313.15 K, m1 = 0.997	1072.73 kg/m3	1627.9 m/s
313.15 K, m1 = 0.998	1072.78 kg/m3	1628 m/s
